In US20090005419A1, “Organic Compounds” (priority 2005, published 2009):

biological target: T1, HuRfl (Homo sapiens, UniProt Q15717); test: Competition experiments with ARE RNA binding to HuRfl (anisotropy, 2D-FIDA); details: dissociation constants from competition experiments with ARE RNA binding to HuRfl; 1:1:1 stoichiometric, competitive inhibition assumed
T1 construct: HuRfl full length HuR protein
Protocol: (1) A cellular reporter gene assay with firefly luciferase under control of the IL-2 or TNF-α AU-rich element. This assay is designed to identify cellularly active, non-toxic inhibitors of ARE-mediated mRNA stabilization. The confirmed hits are tested in a control assay with the luciferase CDS under the IL-2 or TNF-α promoter to exclude compounds acting at the transcriptional level. By definition, the identified hit compounds interfere with posttranscriptional stabilization of short-lived ARE mRNAs at some level along the ARE pathway. (2) In vitro screen for HuR-ARE inhibitors using confocal fluctuation spectroscopy. This assay uses 2D-FIDA to monitor binding of HuR12, a shortened variant of HuR to a TMR labeled ARE RNA in solution. Compounds identified in this screen are supposed to interfere with HuR-ARE recognition by binding either to the ARE or to HuR12. (3) CONA with HuR. Combinatorial on-bead libraries are screened for high affinity HuR binders with CONA. After picking of hit beads and cleavage of on-bead binders from the solid support, the compound structures are decoded by PHPLC-MS. Binding of resynthesized hit compounds to HuR is tested in solution. As the primary result, the identified compounds represent high affinity HuR binders. Functionally, these may be inhibitors of any HuR activity including ARE recognition, nucleocytoplasmic shuttling and protection of the mRNA from ARE-dependent degradation.
The RNA fraction bound y is calculated from the anisotropy data based on y=(r−rmin)/((r−rmin)+Q(rmax−r)) with r≡ measured anisotropy, rmin, rmax≡ anisotropy of the free and HuR bound RNA, respectively, Q ≡ quenching. Dissociation constants Kd are determined by nonlinear curve fitting with KMath in Mathematica 5.0.0, assuming a 1:1:1 stoichiometric, competitive inhibition.

T1 sequence (Q15717 whole entry): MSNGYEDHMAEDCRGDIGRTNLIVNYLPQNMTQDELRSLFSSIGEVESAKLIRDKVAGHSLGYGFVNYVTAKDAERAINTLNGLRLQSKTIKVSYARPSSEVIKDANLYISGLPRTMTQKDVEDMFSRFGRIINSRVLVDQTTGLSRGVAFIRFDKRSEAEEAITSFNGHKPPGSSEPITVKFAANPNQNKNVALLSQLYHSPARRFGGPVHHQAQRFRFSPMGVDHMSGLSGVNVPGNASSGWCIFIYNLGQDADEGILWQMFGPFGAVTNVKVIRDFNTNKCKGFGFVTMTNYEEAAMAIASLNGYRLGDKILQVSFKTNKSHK

First: COc1cccc(CNC(=O)c2ccc(C(=O)NC(Cc3ccc(CN)cc3)C(=O)NCc3ccc(C)cc3)cc2)c1 (stereo not shown) [Example 3, N-[2-(4-Aminomethyl-phenyl)-1-(4-methyl-benzylcarbamoyl)-ethyl]-N′-(3-methoxy-benzyl)-terephthalamide]
Second: Cc1c(C(=O)NC(Cc2c[nH]c3ccccc23)C(=O)NCCCN2CCCC2=O)cc(C(=O)CN2CCCCC2)n1Cc1ccccc1 (stereo not shown) [Example 6, 1-Benzyl-2-methyl-5-(2-piperidin-1-yl-acetyl)-1H-pyrrole-3-carboxylic acid {2-(1H-indol-3-yl)-1-[3-(2-oxo-pyrrolidin-1-yl)-propylcarbamoyl]-ethyl}-amide]
The Kd of the first is 1.6-fold lower: 92 ± 22 nM for the first, 143 ± 27 nM for the second.

`COCCn1c(C(=O)CN2CCC(C(N)=O)CC2)cc(C(=O)NC(CCO)C(=O)NCCCN2CCCC2=O)c1C` (stereo not shown) [Example 4, 1-{2-[4-{3-Hydroxy-1-[3-(2-oxo-pyrrolidin-1-yl)-propylcarbamoyl]-propylcarbamoyl}-1-(2-methoxy-ethyl)-5-methyl-1H-pyrrol-2-yl]-2-oxo-ethyl}-piperidine-4-carboxylic acid amide] and `COc1cccc(CCn2c(C(=O)CN3CCCCC3)cc(C(=O)NC(CC(=O)O)C(=O)NCCCN3CCCC3=O)c2C)c1` (stereo not shown) [Example 5, 3-{[1-[2-(3-Methoxy-phenyl)-ethyl]-2-methyl-5-(2-piperidin-1-yl-acetyl)-1H-pyrrole-3-carbonyl]-amino}-N-[3-(2-oxo-pyrrolidin-1-yl)-propyl]-succinamic acid] are within error of each other in Kd: 103 ± 20 nM for the first, 104 ± 14 nM for the second.
